Data from patent publication US11299494B2, “Substituted imidazo[1,2-b]pyridazines as interleukin-23 and interferon-α modulators” (BRISTOL-MYERS SQUIBB COMPANY, priority 2016, dated 2022).

Experiments:
[1] = target: T1, human Tyk2 (amino acids 575-869, His-tagged) (Homo sapiens, UniProt P29597); experiment: Probe displacement assay (scintillation proximity, radiolabeled probe); format: binding; conditions: 2.5 nM Tyk2 (575-869), 40 nM tritiated probe, 30 minutes at room temperature
T1 construct: made in house
Protocol: The probe displacement assay is conducted as follows: In a […], test compounds along with recombinantly expressed His-tagged protein corresponding to amino acids 575-869 of human Tyk2 (sequence shown below) at 2.5 nM, 40 nM ((R)—N-(1-(3-(8-methyl-5-(methylamino)-8H-imidazo[4,5-d]thiazolo[5,4-b]pyridin-2-yl)phenyl)ethyl)-2-([^3H]methylsulfonyl)benzamide) (preparation described below) and 80 μg/mL Copper His-Tag scintillation proximity assay beads (Perkin Elmer, Catalog #RPNQ0095) in 50 mM HEPES, pH 7.5, containing 100 μg/mL bovine serum albumin and 5% DMSO were incubated for 30 minutes at room temperature. The amount of radiolabeled probe (preparation described below) bound to Tyk2 was then quantified by scintillation counting, and the inhibition by the test compound calculated by comparison to wells either with no inhibitor (0% inhibition) or without Tyk2 (100% inhibition). The IC50 value is defined as the concentration of test compound required to inhibit radiolabeled probe binding by 50%.
Protein Sequence of recombinant Hig-tagged Tyk2 (575-869):
The preparation of radiolabeled probe, (R)—N-(1-(3-(8-methyl-5-(methylamino)-8H-imidazo[4,5-d]thiazolo[5,4-b]pyridin-2-yl)phenyl)ethyl)-2-([^3H]methylsulfonyl)benzamide, was performed as described below:
2-([^3H]methylsulfonyl)benzoic acid: 2-Mercaptobenzoic acid (2.3 mg, 0.015 mmol) and cesium carbonate (2 mg, 0.006 mmol) were added to a 5 mL round-bottomed flask. The flask was attached to a ported glass vacuum line and anhydrous DMF (0.5 mL) was introduced with magnetic stirring. An ampoule of tritiated methyl iodide (200 mCi, Perkin-Elmer lot 3643419) was added to the reaction flask and stirring was maintained at rt for 3 h. In-process HPLC analysis with radiometric detection indicated 80% conversion to the desired product by comparison with authentic standard. Without purification, the crude product was reacted with mCPBA (10 mg, 0.058 mmol) pre-dissolved in CH2Cl2 (1 mL) at room temperature with stirring. The reaction was stirred for 7 h and additional mCPBA (10 mg, 0.058 mmol) was added. The reaction was stirred for approximately 24 h and HPLC analysis indicated 35-40% conversion to the desired […] product. The crude product was purified by semi-preparative HPLC (Luna Sum C18 (10×250 cm); A: MeOH/H2O=15/85 (0.1% TFA); B: MeOH; 270 nm; 0-8 min 0% B 1 ml/min; 8-10 min 0% B 1-3 ml/min; 10-55 min 0% B 3 ml/min; 55-65 min 0-10% B 3 ml/min; 65-75 min 10-50% B 3 ml/min; 75-80 min 50-100% B 3 ml/min) to give 81 mCi (40% radiochemical yield) of 2-([^3H]methylsulfonyl)benzoic acid product identified by its HPLC co-elution with an authentic standard. The radiochemical purity was measured by HPLC to be 99% (Luna 5u C18 (4.6×150 cm); A: H2O (0.1% TFA); B: MeOH; 1.2 ml/min; 270 nm; 0-10 min 20% B; 10-15 min 20-100% B; 15-25 min 100% B. The product was dissolved in anhydrous acetonitrile to give a final solution activity of 5.8 mCi/mL. (R)—N-(1-(3-(8-methyl-5-(methylamino)-8H-imidazo[4,5-d]thiazolo[5,4-b]pyridin-2-yl)phenyl)ethyl)-2-([^3H]methylsulfonyl)benzamide: A solution of 2-([^3H]methylsulfonyl)benzoic acid (23.2 mCi) in acetonitrile was added to a 5 mL round-bottomed flask which was then attached to a vacuum line and carefully evaporated to dryness. (R)-2-(3-(1-aminoethyl)phenyl)-N,8-dimethyl-8H-imidazo[4,5-d]thiazolo[5,4-b]pyridin-5-amine (prepared as described in WO 2004/106293 and Dyckman et al., Bioorganic and Medicinal Chemistry Letters, 383-386 (2011)) (1.1 mg, 0.0033 mmol) and PyBOP (2 mg, 0.0053 mmol) dissolved in anhydrous DMF (1.5 mL) were added to the flask followed by N,N-diisopropylethylamine (0.010 mL). The resulting clear solution was stirred at room temperature for 18 h. […]

[2] = test system: IL-23 Kit225 Reporter (Kit225 T cells with STAT-dependent luciferase reporter); experiment: Kit225 T cell assay, IL-23 stimulated STAT-dependent luciferase reporter; format: cell-based; conditions: 20 ng/mL human recombinant IL-23, 5-6 hours
Protocol: (§1) Kit225 T cells with a stably-integrated STAT-dependent luciferase reporter were plated in RPMI (GIBCO) containing 10% heat-inactivated FBS (GIBCO) and 100 U/mL PenStrep (GIBCO). The cells were then stimulated with either 20 ng/mL human recombinant IL-23 or 200 U/mL human recombinant IFNα (PBL InterferonSource) for 5-6 hours. Luciferase expression was measured using the STEADY-GLO® Luciferase Assay System (PROMEGA®) according to the manufacturer's instructions. Inhibition data were calculated by comparison to no inhibitor control wells for 0% inhibition and non-stimulated control wells for 100% inhibition. Dose response curves were generated to determine the concentration required to inhibit 50% of cellular response (IC50) as derived by non-linear regression analysis.

[3] = test system: IFNa Kit225 Reporter (Kit225 T cells with STAT-dependent luciferase reporter); experiment: Kit225 T cell assay, IFNα stimulated STAT-dependent luciferase reporter; format: cell-based; conditions: 200 U/mL human recombinant IFNα, 5-6 hours
Protocol: as §1

T1 sequence (P29597 with tags, fused parts or gaps): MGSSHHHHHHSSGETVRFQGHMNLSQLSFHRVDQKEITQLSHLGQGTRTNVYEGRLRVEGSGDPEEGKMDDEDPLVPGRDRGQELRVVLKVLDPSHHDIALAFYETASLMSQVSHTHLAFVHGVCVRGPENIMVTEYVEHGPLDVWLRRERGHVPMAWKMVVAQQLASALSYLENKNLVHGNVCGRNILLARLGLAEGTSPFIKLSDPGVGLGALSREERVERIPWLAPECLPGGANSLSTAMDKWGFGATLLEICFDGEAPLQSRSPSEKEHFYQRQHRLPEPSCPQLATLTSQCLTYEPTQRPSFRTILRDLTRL

Row | EC50 [1] [nM] | IC50 [2] [nM] | IC50 [3] [nM] | Compound
1 | 22 | 2100 | 1320 | CNc1cc(-n2cc(C(=O)NCC(C)(C)O)c3ccccc32)nn2c(C(=O)NC3CC3)cnc12 [Example 1, N-cyclopropyl-6-(3-((2-hydroxy-2-methylpropyl)carbamoyl)-1H-indol-1-yl)-8-(methylamino)imidazo[1,2-b]pyridazine-3-carboxamide]
2 | 5 | 813 | 1120 | CCNC(=O)c1cn(-c2cc(NC)c3ncc(C(=O)NC4CC4)n3n2)c2ccccc12 [Example 2]
3 | 19 | 12500 | 4790 | CNc1cc(-n2cc(C(=O)N3CCC(O)CC3)c3ccccc32)nn2c(C(=O)NC3CC3)cnc12 [Example 3]
4 | 22 | 1890 | 1230 | CNc1cc(-n2cc(C(=O)Nc3cccnc3)c3ccccc32)nn2c(C(=O)NC3CC3)cnc12 [Example 4]
5 | 25 | 1960 | 4210 | CNc1cc(-n2cc(C(=O)Nc3ccccc3)c3ccccc32)nn2c(C(=O)NC3CC3)cnc12 [Example 5]
6 | 31 | 12500 | 9550 | CNc1cc(-n2cc(C(=O)NCCC(N)=O)c3ccccc32)nn2c(C(=O)NC3CC3)cnc12 [Example 6]
7 | 35 | 1640 | 924 | CNc1cc(-n2cc(C(=O)NCC(C)C)c3ccccc32)nn2c(C(=O)NC3CC3)cnc12 [Example 7]
8 | 37 | 574 | 537 | CNc1cc(-n2cc(C(=O)NCCOC)c3ccccc32)nn2c(C(=O)NC3CC3)cnc12 [Example 8]
9 | 40 | 3090 | 1460 | CNc1cc(-n2cc(C(=O)NC(C)C)c3ccccc32)nn2c(C(=O)NC3CC3)cnc12 [Example 9]
10 | 6 | 1100 | 882 | CNc1cc(-n2cc(C(=O)NCC(C)(C)O)c3ccccc32)nn2c(C(=O)NC3CCC3)cnc12 [Example 10]
11 | 10 | 1370 | 689 | CNc1cc(-n2cc(C(=O)NC3CCOCC3)c3ccccc32)nn2c(C(=O)NC3CCC3)cnc12 [Example 11]
12 | 18 | 1740 | 1290 | CNc1cc(-n2cc(C(=O)N3CCOCC3)c3ccccc32)nn2c(C(=O)NC3CCC3)cnc12 [Example 12]
13 | 25 | 294 | 1250 | CNc1cc(-n2cc(C(=O)NCC(C)(C)O)c3cccnc32)nn2c(C(=O)NC3CC3)cnc12 [Example 13]
14 | 29 | 3640 | 1750 | CNc1cc(-n2cnc3ccccc32)nn2c(C(=O)NC3CC3)cnc12 [Example 14]
15 | 46 | 649 | 2320 | CNc1cc(-n2ccc3c(OC)cccc32)nn2c(C(=O)NC3CC3)cnc12 [Example 15]
16 | 123 | 947 | 1140 | CNc1cc(-n2ccc3ncccc32)nn2c(C(=O)NC3CC3)cnc12 [Example 16]
17 | 16 | 355 | 270 | CNC(=O)c1nn(-c2cc(NC)c3ncc(C(=O)NC4CC4)n3n2)c2ccccc12 [Example 17, N-cyclopropyl-8-(methylamino)-6-(3-(methylcarbamoyl)-1H-indazol-1-yl)imidazo[1,2-b]pyridazine-3-carboxamide]
18 | 40 | 700 | 511 | CNc1cc(-n2nc(C(=O)N3CCOCC3)c3ccccc32)nn2c(C(=O)NC3CC3)cnc12 [Example 18]
19 | 61 | 511 | 474 | CNc1cc(-n2nc(C(=O)N(C)C)c3ccccc32)nn2c(C(=O)NC3CC3)cnc12 [Example 19]
20 | 75 | 926 | 475 | CNc1cc(-n2nc(C(=O)NCC(C)(C)O)c3ccccc32)nn2c(C(=O)NC3CC3)cnc12 [Example 20]
21 | 13 | 661 | 433 | CNc1cc(-n2ccc3ccccc32)nn2c(C(=O)NC3CC3)cnc12 [Example 21]
22 | 48 | 12500 | 12500 | CNc1cc(-n2cc(C(=O)O)c3ccccc32)nn2c(C(=O)NC3CCC3)cnc12 [Example 22]
